What was measured:
Test in all cases: combination Emax (second highest fraction inhibited in the dose matrix, 72 h); higher = more inhibition; extreme values may be limits of the assay
[1] = system: SHP-77 (Small Cell Lung Carcinoma)
How it was run: (§1)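 Cell lines in DMEM/F12 or RPMI with 10% FBS were plated in 1536-well plates, held 24 hours at 37°C, 5% CO2, then given two-drug dose matrices for 72 hours (DMSO typically 0.2%). Viability was read by CellTiter-Glo 2.0 luminescence and scaled as inhibition from 0 (vehicle wells) to 1 (blank wells). Combination Emax is the second-highest inhibition in the matrix; Bliss excess is observed combination effect minus expected EA + EB − EA·EB, EA and EB being single-agent effects.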

[2] = system: HCT-15 (Colorectal Carcinoma)
How it was run: as §1

[3] = system: LK-2 (Squamous Cell Lung Carcinoma)
How it was run: as §1

[4] = system: RKN (Other Solid Carcinomas)
How it was run: as §1

[5] = system: NCI-H446 (Small Cell Lung Carcinoma)
How it was run: as §1

WM793B (Melanoma) = system: WM793B (Melanoma)
How it was run: as §1

[6] = system: SK-PN-DW (Other Solid Carcinomas)
How it was run: as §1

[7] = system: OPM-2 (Plasma Cell Myeloma)
How it was run: as §1

[8] = system: PSN1 (Pancreatic Carcinoma)
How it was run: as §1

[9] = system: MKN45 (Gastric Carcinoma)
How it was run: as §1

[10] = system: LXF-289 (Lung Adenocarcinoma)
How it was run: as §1

IST-MES1 (Mesothelioma) = system: IST-MES1 (Mesothelioma)
How it was run: as §1

[11] = system: VAL (B-Cell Non-Hodgkin's Lymphoma)
How it was run: as §1

[12] = system: RCM-1 (Colorectal Carcinoma)
How it was run: as §1

[13] = system: PANC-03-27 (Pancreatic Carcinoma)
How it was run: as §1

[14] = system: GP5d (Colorectal Carcinoma)
How it was run: as §1

SF539 (Glioblastoma) = system: SF539 (Glioblastoma)
How it was run: as §1

[15] = system: OVMIU (Ovarian Carcinoma)
How it was run: as §1

[16] = system: HEC-1 (Endometrial Carcinoma)
How it was run: as §1

| SMILES | combination Emax [1] | combination Emax [2] | combination Emax [3] | combination Emax [4] | combination Emax [5] | combination Emax (WM793B (Melanoma)) | combination Emax [6] | combination Emax [7] | combination Emax [8] | combination Emax [9] | combination Emax [10] | combination Emax (IST-MES1 (Mesothelioma)) | combination Emax [11] | combination Emax [12] | combination Emax [13] | combination Emax [14] | combination Emax (SF539 (Glioblastoma)) | combination Emax [15] | combination Emax [16] |
| --- | --- | --- | --- | --- | --- | --- | --- | --- | --- | --- | --- | --- | --- | --- | --- | --- | --- | --- | --- |
| CN(C)CCCOc1ccc(-c2ccc3ncc4c(c3c2)n(C2CCOCC2)c(=O)n4C)cn1 [AZD0156] + C=CCn1c(=O)c2cnc(Nc3ccc(N4CCN(C)CC4)cc3)nc2n1-c1cccc(C(C)(C)O)n1 [AZD1775] (first compound max 1 µM, partner max 1 µM) | 0.419 | 0.726 | 0.898 | 0.263 | 0.801 | 0.452 | 0.871 | 0.805 | 0.462 | 0.701 | 0.264 | 0.207 | 0.846 | 0.518 | 0.91 | 0.664 | 1 | 0.519 | 0.0682 |
| CN(C)CCCOc1ccc(-c2ccc3ncc4c(c3c2)n(C2CCOCC2)c(=O)n4C)cn1 [AZD0156] + CCN(CCO)CCCOc1ccc2c(Nc3cc(CC(=O)Nc4cccc(F)c4)[nH]n3)ncnc2c1 [AZD2811] (first compound max 1 µM, 7x7, partner max 1 µM) | 0.237 | 0.317 | 0.834 | 0.132 | 0.838 | 0.323 | 0.605 | 0.436 | 0.362 | 0.342 | 0.507 | 0.172 | 0.801 | 0.161 | 0.2 | 0.456 | 0.394 | 0.144 | 0.0528 |
| CN(C)CCCOc1ccc(-c2ccc3ncc4c(c3c2)n(C2CCOCC2)c(=O)n4C)cn1 [AZD0156] + C[C@@H]1COCCN1C2=NC(=NC(=C2)C3(CC3)[S@](=N)(=O)C)C4=C5C=CNC5=NC=C4 [AZD6738] (first compound max 1 µM, 7x7, partner max 10 µM) | 0.665 | 0.915 | 0.501 | 0.206 | 0.779 | 0.891 | 0.928 | 0.776 | 0.504 | 0.791 | 0.573 | 0.176 | 0.911 | 0.864 | 0.862 | 0.883 | 0.929 | 0.396 | 0.363 |
| C=CCn1c(=O)c2cnc(Nc3ccc(N4CCN(C)CC4)cc3)nc2n1-c1cccc(C(C)(C)O)n1 [AZD1775] + C[C@@H]1COCCN1C2=NC(=NC(=C2)C3(CC3)[S@](=N)(=O)C)C4=C5C=CNC5=NC=C4 [AZD6738] (first compound max 1 µM, partner max 10 µM) | 0.827 | 0.933 | 0.882 | 0.35 | 0.951 | 0.875 | 0.955 | 0.893 | 0.764 | 0.787 | 0.771 | 0.597 | 0.881 | 0.852 | 0.939 | 0.927 | 1 | 0.731 | 0.638 |
| C=CCn1c(=O)c2cnc(Nc3ccc(N4CCN(C)CC4)cc3)nc2n1-c1cccc(C(C)(C)O)n1 [AZD1775] + O=C(c1cc(Cc2n[nH]c(=O)c3ccccc23)ccc1F)N1CCN(C(=O)C2CC2)CC1 [Olaparib] (first compound max 1 µM, partner max 10 µM) | 0.443 | 0.443 | 0.914 | 0.355 | 0.778 | 0.501 | 0.913 | 0.864 | 0.478 | 0.775 | 0.355 | 0.334 | 0.816 | 0.518 | 0.928 | 0.713 | 1 | 0.569 | 0.119 |
| CCN(CCO)CCCOc1ccc2c(Nc3cc(CC(=O)Nc4cccc(F)c4)[nH]n3)ncnc2c1 [AZD2811] + C=CCn1c(=O)c2cnc(Nc3ccc(N4CCN(C)CC4)cc3)nc2n1-c1cccc(C(C)(C)O)n1 [AZD1775] (first compound max 1 µM, partner max 1 µM) | 0.415 | 0.743 | 0.887 | 0.281 | 0.87 | 0.497 | 0.899 | 0.809 | 0.401 | 0.631 | 0.573 | 0.27 | 0.844 | 0.461 | 0.899 | 0.735 | 1 | 0.463 | 0.141 |
| CCN(CCO)CCCOc1ccc2c(Nc3cc(CC(=O)Nc4cccc(F)c4)[nH]n3)ncnc2c1 [AZD2811] + C[C@@H]1COCCN1C2=NC(=NC(=C2)C3(CC3)[S@](=N)(=O)C)C4=C5C=CNC5=NC=C4 [AZD6738] (first compound max 1 µM, 7x7, partner max 10 µM) | 0.496 | 0.805 | 0.698 | 0.206 | 0.869 | 0.769 | 0.947 | 0.71 | 0.397 | 0.732 | 0.516 | 0.345 | 0.877 | 0.828 | 0.837 | 0.845 | 0.955 | 0.457 | 0.212 |
| CCN(CCO)CCCOc1ccc2c(Nc3cc(CC(=O)Nc4cccc(F)c4)[nH]n3)ncnc2c1 [AZD2811] + O=C(c1cc(Cc2n[nH]c(=O)c3ccccc23)ccc1F)N1CCN(C(=O)C2CC2)CC1 [Olaparib] (first compound max 1 µM, 7x7, partner max 10 µM) | 0.185 | 0.12 | 0.765 | 0.228 | 0.81 | 0.359 | 0.689 | 0.363 | 0.251 | 0.28 | 0.555 | 0.29 | 0.831 | 0.247 | 0.379 | 0.516 | 0.502 | 0.295 | 0.0832 |
| C[C@@H]1COCCN1c1cc(C2([S@](C)(=N)=O)CC2)nc(-c2ccnc3[nH]ccc23)n1 [AZD6738] + O=C(c1cc(Cc2n[nH]c(=O)c3ccccc23)ccc1F)N1CCN(C(=O)C2CC2)CC1 [Olaparib] (first compound max 10 µM, 7x7, partner max 10 µM) | 0.754 | 0.832 | 0.485 | 0.228 | 0.811 | 0.822 | 0.947 | 0.75 | 0.5 | 0.763 | 0.516 | 0.353 | 0.909 | 0.623 | 0.829 | 0.823 | 0.935 | 0.429 | 0.143 |
| Cc1cc2ncnn2cc1Nc1ncc2c(n1)n(C1CCOCC1)c(=O)n2C [AZD7648] + C=CCn1c(=O)c2cnc(Nc3ccc(N4CCN(C)CC4)cc3)nc2n1-c1cccc(C(C)(C)O)n1 [AZD1775] (first compound max 10 µM, partner max 1 µM) | 0.432 | 0.736 | 0.894 | 0.248 | 0.839 | 0.584 | 0.875 | 0.864 | 0.557 | 0.804 | 0.476 | 0.402 | 0.864 | 0.596 | 0.878 | 0.704 | 0.998 | 0.635 | 0.137 |
| Cc1cc2ncnn2cc1Nc1ncc2c(n1)n(C1CCOCC1)c(=O)n2C [AZD7648] + CCN(CCO)CCCOc1ccc2c(Nc3cc(CC(=O)Nc4cccc(F)c4)[nH]n3)ncnc2c1 [AZD2811] (first compound max 10 µM, 7x7, partner max 1 µM) | 0.258 | 0.455 | 0.742 | 0.211 | 0.834 | 0.411 | 0.696 | 0.605 | 0.397 | 0.446 | 0.395 | 0.31 | 0.798 | 0.316 | 0.334 | 0.478 | 0.462 | 0.444 | 0 |
| Cc1cc2ncnn2cc1Nc1ncc2c(n1)n(C1CCOCC1)c(=O)n2C [AZD7648] + CN(C)CCCOc1ccc(-c2ccc3ncc4c(c3c2)n(C2CCOCC2)c(=O)n4C)cn1 [AZD0156] (first compound max 10 µM, 7x7, partner max 1 µM) | 0.223 | 0.267 | 0.269 | 0.194 | 0.309 | 0.361 | 0.303 | 0.556 | 0.38 | 0.428 | 0.201 | 0.239 | 0.53 | 0.201 | 0.318 | 0.293 | 0.352 | 0.474 | 0.002 |
| CCc1c2c(nc3ccc(O)cc13)-c1cc3c(c(=O)n1C2)COC(=O)[C@]3(O)CC [SN-38] + O=C(c1cc(Cc2n[nH]c(=O)c3ccccc23)ccc1F)N1CCN(C(=O)C2CC2)CC1 [Olaparib] (first compound max 0.3 µM, 7x7, partner max 10 µM) | 0.567 | 0.852 | 0.456 | 0.651 | 0.905 | – | 0.909 | 0.734 | 0.753 | 0.847 | – | 0.63 | 0.994 | 0.809 | 0.839 | 0.704 | 0.99 | 0.479 | 0.761 |
